The results in this text go back to ChEMBL document CHEMBL4339240, “Structural Elucidation of Presilphiperfolane-7α,8α-diol, a Bioactive Sesquiterpenoid from Pulicaria vulgaris: A Combined Approach of Solvent-Induced Chemical Shifts, GIAO Calculation of Chemical Shifts, and Full Spin Analysis” (J Nat Prod, 2019).

The nature of series [1]: Toxicity in Artemia salina by brine shrimp lethality assay. The note with it: in vivo.
A short description of series [2]: Toxicity in mouse assessed as induction of mortality. The note with it: in vivo.

SMILES strings stand for the structures.

What is called LC50 is the concentration lethal to half of the exposed cells or organisms. Read a low LC50 as a more lethal substance. As a reminder, the LD50 is the dose expected to kill half of the subjects tested. For `O=C1C[C@@H]2OCC=C3CN4CC[C@]56c7ccccc7N1[C@H]5[C@H]2[C@H]3C[C@H]46.O=S(=O)(O)O`, the LC50 in series [1] was found to be 200 µM. Besides, the LD50 in series [2] is below 2 mg/kg.
